This is an account of results in article PMC12612596, “Real‐time FRET assay for monitoring detyrosination by TMCP1 and VASH2” (Protein Science : A Publication of the Protein Society, 2025).

Where two headings read alike, the source gives them in different places. Where a SMILES comes first, the peptide text is derived from it.

Data set [1] addresses T1, TMCP1 (Homo sapiens, UniProt Q68EN5).
T1 construct: TMCP1 open Reading Frame (ORF) was cloned into pET28A+; 6His (N); made in house; host or cells: Escherichia coli BL21 Star (DE3)
T1 sequence (Q68EN5 1-471): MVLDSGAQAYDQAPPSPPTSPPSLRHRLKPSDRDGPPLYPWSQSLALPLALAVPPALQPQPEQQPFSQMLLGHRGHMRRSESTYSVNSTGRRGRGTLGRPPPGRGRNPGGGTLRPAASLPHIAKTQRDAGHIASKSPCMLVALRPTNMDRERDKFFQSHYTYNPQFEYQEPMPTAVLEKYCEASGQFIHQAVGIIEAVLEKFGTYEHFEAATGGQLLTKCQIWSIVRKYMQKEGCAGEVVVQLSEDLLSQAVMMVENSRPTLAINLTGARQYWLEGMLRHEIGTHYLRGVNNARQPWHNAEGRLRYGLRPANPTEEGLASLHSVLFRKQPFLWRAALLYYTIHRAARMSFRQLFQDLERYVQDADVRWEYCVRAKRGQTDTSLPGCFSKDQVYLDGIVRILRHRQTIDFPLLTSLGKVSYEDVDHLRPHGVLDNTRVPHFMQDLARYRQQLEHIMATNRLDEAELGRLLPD
Description: TMCP1 FRET enzyme activity assay under altered conditions (inhibitors, salts, metal ions, buffers, competition; substrate FS2). The class given is biochemical. The conditions noted are these: for Effect of divalent metal ion on TMCP1 activity (in words): TMCP1 pre-treated with 50 μM EDTA 10 min at room temperature, metal ion >50 μM, 30 min at 37 °C, then FS2. On the procedure: Protein production and purification steps were previously described (Nicot et al., [2023]). Briefly, TMCP1 open Reading Frame (ORF) was cloned into pET28A+ to produce 6His N‐terminally tagged TMCP1. Transformed Escherichia coli strain BL21 Star (DE3) was grown at 37°C until the optical density (OD600) reached 0.6; then the culture was induced with 0.5 mM isopropyl‐β‐d‐thiogalactoside (IPTG) overnight at 18°C. Cells were pelleted for 15 min at 5000 g and resuspended in a 50 mM Tris–HCl buffer (pH 7.4), 500 mM NaCl, 2 mM TCEP, 0.1% Tween. Cell lysis was performed by sonication followed by centrifugation at 20,000×g for 30 min at 4°C. The supernatant was incubated with pre‐washed Ni‐NTA agarose beads (Qiagen) at 4°C for 2 h. Beads were washed extensively in lysis buffer supplemented with 20 mM imidazole and 0.1% Triton. Elutions were performed in a 50 mM Tris–HCl buffer (pH 7.5), 500 mM NaCl, 250 mM imidazole and 1 mM TCEP. The eluted fractions containing proteins were dialyzed overnight at 4°C against 50 mM Tris–HCl buffer (pH 7.5), 300 mM NaCl, 1 mM TCEP using 10 kDa dialysis cassettes. The dialyzed samples were then concentrated and buffer‐exchanged in a 50 mM Tris–HCl buffer (pH 7.5), 200 mM NaCl, 1 mM TCEP using 10 kDa Amicon centrifugal filter units (Amicon Ultra‐4 Merck Millipore). TMCP1 was then snap frozen and stored at −80°C in aliquots.
For each experiment, a fresh stock solution of the fluorescent peptide substrates (5 mM in DMSO), was prepared and protected from light. […] VASH2/SVPB was used at a final concentration of 235 nM, obtained by diluting a 94 μM stock solution (stored at −80°C) at a 1:400 ratio. Enzymatic kinetics experiments were performed in triplicate by measuring the fluorescence of the FRET peptide substrates cleaved by the two enzymes. The cleavage releases a nitro‐tyrosine residue, which acts as a quencher. Its removal leads to an increase of fluorescence, which was quantified fluorometrically (Ex/Em = 320/420 nm) using a SpectraMax i3x (Molecular Devices) microplate reader.
Data were analyzed using GraphPad Prism, with a dedicated curve fitting applied. A Gaussian bell‐shaped curve was used for the optimal pH study, and dose–response inhibition curves were generated by plotting the concentration of NaCl, EDTA, NS3, etc., against the normalized initial velocity (Vi) corresponding to enzyme activity. Data were normalized so that the curve ranged from 100 to 0% activity.
Optimal pH was established using a 50 mM Tris–HCl buffer, with the pH adjusted to the desired value (ranging 4–11) using 0.1 M NaOH or HCl solutions. For the ionic strength experiments, a 500 mM NaCl stock solution in a 50 mM Tris–HCl buffer was used as a starting point for serial dilution (500–0 mM). For EDTA analysis, a 10 mM stock solution was prepared and fully solubilized by vigorous stirring at 80°C. EDTA (0.004 to 400 μM) was then incubated with TMCP1, for 30 min at 37°C before adding the fluorescent substrate and starting the fluorescence measurement. Subsequently, an identical experiment was conducted using 2‐fold serial dilutions to refine the curve around the previously determined IC50.
For metal ion dependency assays, the enzyme was first incubated with 50 μM of EDTA for 10 min at room temperature. Then, serial dilutions were performed from 100 mM stock solutions of each metal ion (ZnCl₂, CoCl₂, and MnCl₂.).
Finally, the competition assay was performed similarly, except that the 96‐well plate was kept on ice during the serial dilution of the NS3 substrate and its addition into the wells.

The next data set concerns the target T2, VASH2/SVBP (Homo sapiens, UniProt Q86V25+Q8N300).
T2 construct: His (N); T7 (N); made in house; host or cells: Escherichia coli BL21 Star (DE3)
Description: VASH2 FRET inhibition assay (substrate FS2). In kind it is biochemical.

A further data set deals with VASH1. Set-up: method as in Feral et al., 2025. The conditions noted are these: ref Feral et al., 2025; cited from earlier work.
For data set [2], the target named is T1, TMCP1. The conditions noted are these: tubulin as substrate; ref Nicot et al., 2023; cited from earlier work. On the procedure: In addition, considering that TMCP1 is a metallocarboxypeptidase, its metal ion dependency was also assessed (Figure 4e). First, the metal ions present in the active site of TMCP1 were chelated with 50 μM EDTA. Subsequently, ZnCl₂, MnCl₂, or CoCl₂ were added at varying concentrations (>50 μM) to determine their impact on the restoration of enzymatic activity.

Data set [3] has as its target Tubulin MetalloCarboxyPeptidase 1 (TMCP1) (UniProt Q68EN5).
In the next data set the test system is VASH1/SVBP. Description: LC-MS analysis of NS3 cleavage by VASH1/SVBP. The class given is biochemical.

T2 sequence (Q86V25 whole entry, species assumed): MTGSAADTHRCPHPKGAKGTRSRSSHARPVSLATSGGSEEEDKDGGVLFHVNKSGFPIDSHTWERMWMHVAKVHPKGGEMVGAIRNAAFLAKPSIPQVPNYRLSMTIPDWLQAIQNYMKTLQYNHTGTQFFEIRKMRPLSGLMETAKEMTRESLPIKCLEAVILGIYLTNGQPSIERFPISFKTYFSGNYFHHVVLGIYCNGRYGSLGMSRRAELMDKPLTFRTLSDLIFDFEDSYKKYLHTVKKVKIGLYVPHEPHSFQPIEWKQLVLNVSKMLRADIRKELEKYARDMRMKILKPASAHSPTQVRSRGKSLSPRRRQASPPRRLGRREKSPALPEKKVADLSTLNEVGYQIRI
T2 sequence (Q8N300 whole entry partner, species assumed): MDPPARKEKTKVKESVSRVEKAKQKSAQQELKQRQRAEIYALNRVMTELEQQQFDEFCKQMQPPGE
Description for VASH2/SVBP: Serial dilutions were prepared prior to enzyme addition (235 nM final concentration) to minimize time‐dependent inhibition effects and to avoid premature covalent modification of the enzyme during the dilution steps. […]

For `[Cl-].[Na+]` [NaCl], the “Reduction in TMCP1 activity by NaCl” value on TMCP1 [1] (NaCl around 100 mM in 50 mM Tris-HCl, FS2, n = 3) is on record as 50%. At TMCP1 [1] (NaCl concentrations above 200 mM, n = 3), the “Inhibition of TMCP1 by NaCl (in words)” value is “almost complete inhibition”.

The term IC50 denotes the concentration at which inhibition is half-maximal. For the molecule `CCOC(=O)C1OC1C(=O)N[C@@H](Cc1ccc(O)cc1)C(=O)O` (some centres unmarked) [EpoY], the IC50 on VASH2/SVBP was found to be 0.42 µM. In addition, the “VASH1 inhibition (in words)” value with VASH1 is listed as “blocking VASH1”.

With `O=C(O)CN(CCN(CC(=O)O)CC(=O)O)CC(=O)O` [EDTA, reference compound], the IC50 on TMCP1 [1] amounted to 2.15 µM.

Turning to `[Cl][Mn][Cl]` [MnCl₂], the “Effect of divalent metal ion on TMCP1 activity (in words)” value (“Effect of divalent metal ion” for short) on TMCP1 [1] (n = 3) was “also restored the activity but unlike CoCl₂, it did so in a concentration‐dependent manner”; on TMCP1 [1] (n = 3, listed as Mn^2+) it was “enhance its activity in a concentration‐dependent manner”. For the same molecule, on TMCP1 [2], the “Effect of metal ion on TMCP1 (immunoblot, in words)” value (shortened to “Effect of metal ion on TMCP1”) was “strongly activated”.

“NS3 (natural substrate 3, non-fluorescent peptide of the last 12 amino acids of the α-tubulin C-terminal tail)” came in with an IC50 of the competing non-fluorescent peptide NS3 on cleavage of the fluorogenic substrate FS2 (100 μM) by TMCP1, real-time FRET enzymatic assay in data set [3] of 62 µM.

For `[Cl-].[Cl-].[Co+2]` [CoCl₂], the “Effect of divalent metal ion” value was “highly effective not only at restoring but even increasing TMCP1 activity, although its effectiveness was reduced at higher concentrations” on TMCP1 [1] (n = 3) and “enhance its activity in a concentration‐dependent manner” on TMCP1 [1] (n = 3, listed as Co^2+). Also, on TMCP1 [2], the “Effect of metal ion on TMCP1” value is given as “strongly activated”.

For the molecule `[Cl-].[Cl-].[Mg+2]` [MgCl₂], the “TMCP1 activity with MgCl₂ (in words)” value at TMCP1 [1] (80 mM PIPES with or without 1 mM MgCl₂, compared to 50 mM Tris-HCl) is recorded as “enzyme activity comparable to those obtained in 50 mM Tris–HCl”.

Take `CC(=O)N[C@H](C(=O)N[C@@H](CCC(=O)O)C(=O)NCC(=O)N[C@@H](CCC(=O)O)C(=O)NCC(=O)N[C@@H](CCC(=O)O)C(=O)N[C@@H](CCC(=O)O)C(=O)N[C@@H](CCC(=O)O)C(=O)NCC(=O)N[C@@H](CCC(=O)O)C(=O)N[C@@H](CCC(=O)O)C(=O)N[C@@H](Cc1ccc(O)cc1)C(=O)O)C(C)C` [NS3] (Ac-VEGEGEEEGEEY-OH): the “Affinity relative to fluorescent peptide (in words)” value at TMCP1 [1] (NS3 vs FS2 (100 μM) in competition assay) is reported as “slightly higher affinity”. For the same molecule, the 50% inhibitory concentration (IC50) on TMCP1 [1] (read-out: IC50, TMCP1 competition by NS3) is roughly 62 µM. For the same molecule, the “Cleavage of NS3 by VASH1 by LC-MS (in words)” value with VASH1/SVBP is reported as “no activity was detected”.

With `O=C(O)CN(CCOCCOCCN(CC(=O)O)CC(=O)O)CC(=O)O` [EGTA, reference compound], the “TMCP1 activity with EGTA (in words)” value on TMCP1 [1] (1 mM EGTA in Tris-HCl buffer) was “complete loss of enzymatic activity”.

With `[Cl-].[Cl-].[Zn+2]` [ZnCl₂], the “Effect of divalent metal ion” value on TMCP1 [1] (n = 3) was “did not restore the enzymatic activity”; on TMCP1 [1] (n = 3, listed as Zn^2+), “inhibits the enzyme”. Besides, the “Effect of metal ion on TMCP1” value on TMCP1 [2] is “inhibited”.
